Reference: patent US4410516A, “1-N(αHydroxy-ω-aminoalkanoyl) derivatives of 5,3',4'-trideoxy- or 5,3', 4'-trideoxy-6'-N- methyl- or 5, 3', 4',6"-tetradeoxykannamyci B and production thereof” (Zaidan Hojin Biseibutsu Kagaku Kenkyu Kai, priority 1981, dated 1983)
Values after ≈ are worked out from the molar mass of the structure shown. Read-outs that look alike come from different tables or passages of the source.

Columns and labels:
[1] = tested on: Micrococcus flavus FDA 16; assay: Minimum inhibitory concentration, serial dilution on nutrient agar; format: cell-based
[2] = tested on: Mycobacterium smegmatis ATCC 607; assay: as above; format: cell-based; details: Mycolicibacterium smegmatis
[3] = tested on: Staphylococcus epidermidis 109; assay: as above; format: cell-based
[4] = Acute toxicity by intravenous injection in mice; details: mouse, in vivo
[5] = tested on: Pseudomonas aeruginosa B-13; assay: Minimum inhibitory concentration, serial dilution on nutrient agar; format: cell-based; details: B13, 37° C., 18 hours incubation
[6] = tested on: Staphylococcus aureus 209P; assay: as above; format: cell-based; details: 37° C., 18 hours incubation
[7] = tested on: Klebsiella pneumoniae PCI 602; assay: as above; format: cell-based
Escherichia coli NIHJ = assay: as above; format: cell-based
Serratia SOU = assay: as above; format: cell-based; details: 37° C., 18 hours incubation
[8] = tested on: Bacillus subtilis PCI 219; assay: as above; format: cell-based; details: PCI219, 37° C., 18 hours incubation
[9] = tested on: Pseudomonas aeruginosa 21-75; assay: as above; format: cell-based; details: 2175, 37° C., 18 hours incubation
[10] = tested on: Pseudomonas aeruginosa H9; assay: as above; format: cell-based
Proteus rettgeri GN466 = assay: as above; format: cell-based; details: Providencia rettgeri
[11] = tested on: Staphylococcus aureus AP01; assay: as above; format: cell-based; details: 37° C., 18 hours incubation
[12] = tested on: Escherichia coli K-12 ML 1629; assay: as above; format: cell-based
[13] = tested on: Pseudomonas aeruginosa ROS134/PU21; assay: as above; format: cell-based; details: ROS134/PU21, 18 h
[14] = tested on: Escherichia coli K-12 LA 290 R56; assay: as above; format: cell-based; details: K12LA290R56, 18 h
[15] = tested on: Pseudomonas aeruginosa PST1; assay: as above; format: cell-based; details: PST1, nutrient agar, 37° C., 18 hours incubation, read-out: MIC
[16] = tested on: Escherichia coli K-12 LA 290 R55; assay: as above; format: cell-based; details: K12LA290R55, 18 h
[17] = tested on: Staphylococcus aureus Smith; assay: as above; format: cell-based; details: 37° C., 18 hours incubation
[18] = tested on: Pseudomonas aeruginosa K-Ps102; assay: as above; format: cell-based
[19] = tested on: Escherichia coli JR66/W677; assay: as above; format: cell-based
[20] = tested on: Escherichia coli K-12 LA 290 R64; assay: as above; format: cell-based; details: K12LA290R64, 18 h
[21] = tested on: Bacillus cereus ATCC 10702; assay: as above; format: cell-based
[22] = tested on: Pseudomonas aeruginosa A3; assay: as above; format: cell-based; details: 37° C., 18 hours incubation
Proteus vulgaris OX19 = assay: as above; format: cell-based; details: 37° C., 18 hours incubation
[23] = tested on: Pseudomonas maltophilia GN907; assay: as above; format: cell-based; details: Stenotrophomonas maltophilia, 37° C., 18 hours incubation
Proteus rettgeri GN311 = assay: as above; format: cell-based; details: Providencia rettgeri, 37° C., 18 hours incubation
Salmonella typhi T-63 = assay: as above; format: cell-based; details: Salmonella enterica, 18 h
[24] = tested on: Pseudomonas aeruginosa H11; assay: as above; format: cell-based
Serratia 4 = assay: as above; format: cell-based; details: 37° C., 18 hours incubation
[25] = ATCC607, nutrient agar, 37° C., 18 hours incubation, read-out: MIC
[26] = Staphylococcus epidermidis, 109, nutrient agar, 37° C., 18 hours incubation, read-out: MIC
[27] = FDA16, nutrient agar, 37° C., 18 hours incubation, read-out: MIC
[28] = PCI602, nutrient agar, 37° C., 18 hours incubation, read-out: MIC
[29] = nutrient agar, 37° C., 18 hours incubation, read-out: MIC
[30] = H9, nutrient agar, 37° C., 18 hours incubation, read-out: MIC
[31] = GN466, nutrient agar, 37° C., 18 hours incubation, read-out: MIC
[32] = K12ML1629, nutrient agar, 37° C., 18 hours incubation, read-out: MIC
[33] = JR66/W677, nutrient agar, 37° C., 18 hours incubation, read-out: MIC
[34] = ATCC10702, nutrient agar, 37° C., 18 hours incubation, read-out: MIC
[35] = H11, nutrient agar, 37° C., 18 hours incubation, read-out: MIC

SMILES	MIC [2, 25] [µg/mL]	LD50 [4] [mg/kg]	MIC [5] [µg/mL]	MIC [6] [µg/mL]	MIC (Serratia SOU) [µg/mL]	MIC [8] [µg/mL]	MIC [9] [µg/mL]	MIC [11] [µg/mL]	MIC [13] [µg/mL]	MIC [14] [µg/mL]	MIC [15] [µg/mL]	MIC [16] [µg/mL]	MIC [17] [µg/mL]	MIC [20] [µg/mL]	MIC [22] [µg/mL]	MIC (Proteus vulgaris OX19) [µg/mL]	MIC [23] [µg/mL]	MIC (Proteus rettgeri GN311) [µg/mL]	MIC (Salmonella typhi T-63) [µg/mL]	MIC (Serratia 4) [µg/mL]	further results
CNC[C@@H]1CC[C@@H](N)[C@@H](O[C@H]2C[C@@H](O[C@H]3O[C@H](CO)[C@@H](O)[C@H](N)[C@H]3O)[C@H](NC(=O)[C@@H](O)CCCN)C[C@@H]2N)O1 [AHV-trideoxyMKMB, 1-N-[(S)-5-amino-2-hydroxyvaleryl]-5,3',4'-trideoxy-6'-N-methylkanamycin B]	0.39 (≈ 0.691 µM)	50 to 100	12.5 (≈ 22.1 µM)	0.2 (≈ 0.354 µM)	50 (≈ 88.5 µM)	< 0.2	12.5 (≈ 22.1 µM)	0.39 (≈ 0.691 µM)	50 (≈ 88.5 µM)	1.56 (≈ 2.76 µM)	12.5 (≈ 22.1 µM)	3.13 (≈ 5.54 µM)	< 0.2	1.56 (≈ 2.76 µM)	0.39 (≈ 0.691 µM)	0.78 (≈ 1.38 µM)	> 100	100 (≈ 177 µM)	3.13 (≈ 5.54 µM)	12.5 (≈ 22.1 µM)	MIC ([1]; FDA16, 18 h): 3.13 µg/mL (≈ 5.54 µM); MIC [3, 26]: < 0.2 µg/mL; MIC ([7]; PCI602, 18 h): 1.56 µg/mL (≈ 2.76 µM); MIC (Escherichia coli NIHJ; 18 h): 1.56 µg/mL (≈ 2.76 µM); MIC ([10]; H9, 18 h): 3.13 µg/mL (≈ 5.54 µM); MIC (Proteus rettgeri GN466; GN466, 18 h): 6.25 µg/mL (≈ 11.1 µM); MIC ([12]; K12ML1629, 18 h): 3.13 µg/mL (≈ 5.54 µM); MIC ([18]; KPS102, 18 h): 1.56 µg/mL (≈ 2.76 µM); MIC ([19]; JR66/W677, 18 h): 3.13 µg/mL (≈ 5.54 µM); MIC ([21]; ATCC10702, 18 h): 1.56 µg/mL (≈ 2.76 µM); MIC ([24]; H11, 18 h): 6.25 µg/mL (≈ 11.1 µM)
C[C@H]1O[C@H](O[C@@H]2C[C@H](O[C@H]3O[C@H](CN)CC[C@H]3N)[C@@H](N)C[C@H]2N)[C@H](O)[C@@H](N)[C@@H]1O [TetradeoxyKMB, 5,3',4',6"-tetradeoxykanamycin B]	0.78 (≈ 1.86 µM)	25 to 50	50 (≈ 119 µM)	3.13 (≈ 7.46 µM)	> 100	< 0.2	> 100	6.25 (≈ 14.9 µM)	> 100	100 (≈ 238 µM)	> 100	> 100	< 0.2	100 (≈ 238 µM)	3.13 (≈ 7.46 µM)	1.56 (≈ 3.72 µM)	> 100	> 100	12.5 (≈ 29.8 µM)	50 (≈ 119 µM)	MIC [1, 27]: 50 µg/mL (≈ 119 µM); MIC [3, 26]: 6.25 µg/mL (≈ 14.9 µM); MIC [7, 28]: 3.13 µg/mL (≈ 7.46 µM); MIC (Escherichia coli NIHJ; [29]): 6.25 µg/mL (≈ 14.9 µM); MIC [10, 30]: 100 µg/mL (≈ 238 µM); MIC (Proteus rettgeri GN466; [31]): 25 µg/mL (≈ 59.6 µM); MIC [12, 32]: 6.25 µg/mL (≈ 14.9 µM); MIC ([18]; KPS102, 18 h): 12.5 µg/mL (≈ 29.8 µM); MIC [19, 33]: > 100 µg/mL; MIC [21, 34]: 3.13 µg/mL (≈ 7.46 µM); MIC [24, 35]: 25 µg/mL (≈ 59.6 µM)
CNC[C@@H]1CC[C@@H](N)[C@@H](O[C@H]2C[C@@H](O[C@H]3O[C@H](CO)[C@@H](O)[C@H](N)[C@H]3O)[C@H](N)C[C@@H]2N)O1 [TrideoxyMKMB, 5,3',4'-trideoxy-6'-N-methylkanamycin B]		50 to 100	100 (≈ 222 µM)	1.56 (≈ 3.47 µM)	> 100	< 0.2	> 100	25 (≈ 55.6 µM)	> 100	25 (≈ 55.6 µM)	> 100	100 (≈ 222 µM)	0.39 (≈ 0.868 µM)	25 (≈ 55.6 µM)	3.13 (≈ 6.96 µM)	3.13 (≈ 6.96 µM)	> 100	100 (≈ 222 µM)	6.25 (≈ 13.9 µM)	50 (≈ 111 µM)	MIC [1, 27]: 100 µg/mL (≈ 222 µM); MIC ([2]; ATCC607, 18 h): 6.25 µg/mL (≈ 13.9 µM); MIC ([3]; Staphylococcus epidermidis, 109, 18 h): 6.25 µg/mL (≈ 13.9 µM); MIC [7, 28]: 12.5 µg/mL (≈ 27.8 µM); MIC (Escherichia coli NIHJ; [29]): 12.5 µg/mL (≈ 27.8 µM); MIC [10, 30]: 25 µg/mL (≈ 55.6 µM); MIC (Proteus rettgeri GN466; [31]): 25 µg/mL (≈ 55.6 µM); MIC [12, 32]: 25 µg/mL (≈ 55.6 µM); MIC ([18]; KPS102, nutrient agar, 37° C., 18 hours incubation, read-out: MIC): 25 µg/mL (≈ 55.6 µM); MIC [19, 33]: 100 µg/mL (≈ 222 µM); MIC [21, 34]: 12.5 µg/mL (≈ 27.8 µM); MIC [24, 35]: 25 µg/mL (≈ 55.6 µM)
